Measured values reported in patent publication US12071436B2, “Anti-parasitic compounds and uses thereof” (Memorial Sloan-Kettering Cancer Center, priority 2016, dated 2024).
Read-outs that look alike come from different tables or passages of the source.

How the values were obtained:
[1] = tested on: Trypanosoma cruzi parasites; assay: Trypanosoma cruzi in vitro IC50 (structure-activity analyses); format: cell-based; conditions: infection with Trypanosoma cruzi parasites for 72 hours and treatment with the compound for 72 hours
Procedure: Select compounds described herein were evaluated for structure-activity analyses in vitro.

Cytotoxicity (Table 1) = format: cell-based
[2] = tested on: HepG2 human hepatoma cells; assay: HepG2 cytotoxicity, MTS cell proliferation assay; format: cell-based; conditions: 48 h, n=1
Procedure: (§1) Select compounds described herein were evaluated for structure-activity analyses for anti-plasmodial activity in vitro. For Dd2 EC50 (M), calculations were for n=3. For HepG2 EC50 (M), calculations were for n=1. For the human microsomal stability determination, t was 60 minutes.
Selected compounds were evaluated for cytotoxicity using HepG2 human hepatoma cells. A 384-well clear bottom plate was seeded with 2,500 cells/well and incubated for 24 h. Serial dilutions of the compound (were added to the plate and plates were incubated for an additional 48 h. Viability of cells were assessed by MTS [(3-(4,5-dimethylthiazol-2-yl)-5-(3-carboxymethoxyphenyl)-2-(4-sulfophenyl)-2H-tetrazolium) cell proliferation assay (CellTiter 96® Aqueous non-radioactive cell proliferation assay, Promega) (See Cory et al., Cancer Communications, 3, 1991, p. 207-212).

P. falciparum Dd2 = assay: Anti-plasmodial growth inhibition, SYBR green I-based DNA quantification; format: cell-based; conditions: Plasmodium falciparum, 72 h incubation, n=3
Procedure: as §1
Different dilutions of the compound in RPMI 1640 (Life Technologies) from a stock of 10 mM in dimethyl sulfoxide (DMSO) were added to the culture at a 1% parasitemia and 2% hematocrit in 96-well black plates (Santa Cruz Biotechnology). Maximum DMSO concentration in the culture never exceeded 0.25%. Chloroquine at 1 μM was used as a positive control to determine the baseline value. Following 72 h incubation at 37° C., the ability of the compounds to inhibit growth of the parasite was determined by a SYBR green I-based DNA quantification assay (See Bennett et al., 2004, Chemother. 48, 1807-1810; see also Johnson et al., 2007, Antimicrob. Agents. Chemother. 51, 1926-1933; Smilkstein et al., 2004, Antimicrob. Agents. Chemother. 48, 1803-1806). EC50 was calculated (n=3) from a dose response curve that was generated from a concentration range of 0-20 μM using GraphPad Prism v5.0.

[3] = Plasma pharmacokinetics and liver distribution study in female BALB/c mice; format: in vivo, mouse; conditions: 100 mg/kg, female BALB/c mice; for Tmax: mouse, plasma, read-out: Tmax (plasma)
Procedure: A plasma pharmacokinetics and liver distribution study of selected compounds, including Pyrrolopyridine-008 (2015-foleyc-216), Pyrrolopyridine-D20-ent (2015-foleyc-217), and Pyrrolopyridine-M03 (2015-foleyc-218), in female BALB/c mice was conducted following a single intraperitoneal and oral administration. […] The blood samples were collected from a set of […] mice at each time point in labeled micro centrifuge tube containing K2EDTA as anticoagulant. Plasma samples were separated by centrifugation at 4000 rpm for 10 min and stored below −70° C. until bioanalysis. After collection of blood sample, animals were humanely euthanized by carbon dioxide asphyxiation to collect liver from Group 1 and Group 2 at all the time points. The collected tissues were rinsed in PBS and were homogenized with nine times of liver weight in ice cold phosphate buffer saline (pH 7.4) and stored below −70° C. until bio-analysis. Total homogenate volume was ten times the tissue weight. All samples were processed for analysis by protein precipitation using acetonitrile and analyzed with fit-for-purpose LC-MS/MS method (LLOQ: 2.01 ng/mL for plasma and 50.30 ng/g for liver). Pharmacokinetic parameters were calculated using the non-compartmental analysis tool of Phoenix WinNonlin® (Version 6.3).

[4] = ip, single intraperitoneal dose

| SMILES | IC50 [1] [µM] | EC50 (P. falciparum Dd2) [µM] | Cytotoxicity (Cytotoxicity (Table 1)) [µM] | EC50 [2] [µM] | other results |
| --- | --- | --- | --- | --- | --- |
| CCOC(=O)c1cc2c(c(-c3cccc(C#CCN(C)C)c3)n1)CN([S@+]([O-])C(C)(C)C)C2 [Compound 49, Ethyl (R)-2-(tert-butylsulfinyl)-4-(3-(3-(dimethylamino)prop-1-yn-1-yl)phenyl)-2,3-dihydro-1H-pyrrolo[3,4-c]pyridine-6-carboxylate] | 0.862 | – | >10 | – | – |
| CC(C)NC(=O)N1Cc2cc(C(=O)NCc3ccc4c(c3)OCO4)nc(-c3cccc(-c4cccnc4)c3)c2[C@H]1CCO [2015-foleyc-253, (R)-N^6-(benzo[d][1,3]dioxol-5-ylmethyl)-3-(2-hydroxyethyl)-N^2-isopropyl-4-(3-(pyridin-3-yl)phenyl)-1,3-dihydro-2H-pyrrolo[3,4-c]pyridine-2,6-dicarboxamide] | – | 5.73 ± 0.33 | – | 62 | – |
| CC(C)NC(=O)N1Cc2cc(C(=O)NCC(F)(F)F)nc(-c3cccc(-c4cccnc4)c3)c2[C@H]1CCO [2015-foleyc-255, (R)-3-(2-hydroxyethyl)-N2-isopropyl-4-(3-(pyridin-3-yl)phenyl)-N6-(2,2,2-trifluoroethyl)-1,3-dihydro-2H-pyrrolo[3,4-c]pyridine-2,6-dicarboxamide] | – | 15.5 ± 0.75 | – | > 100 | – |
| CC(C)(C)[S@@+]([O-])N1Cc2cc(C(=O)NCc3ccc4c(c3)OCO4)nc(-c3ccccc3)c2[C@H]1CCO [2015-foleyc-217, (R)-N-(benzo[d][1,3]dioxol-5-ylmethyl)-2-((R)-tert-butylsulfinyl)-3-(2-hydroxyethyl)-4-phenyl-2,3-dihydro-1H-pyrrolo[3,4-c]pyridine-6-carboxamide] | – | 2.19 ± 0.32 | – | 63 | Tmax [3, 4]: 60 min; Tmax ([3]; single oral dose): 30 min; plasma concentrations quantifiable till ([3]; single intraperitoneal dose): 12 h; plasma concentrations quantifiable till ([3]; single oral dose): 12 h |
| CC(C)(C)[S@@+]([O-])N1Cc2cc(C(=O)NCc3ccc4c(c3)OCO4)nc(-c3cccc(-c4cccnc4)c3)c2C1 [2015-foleyc-212, (R)-N-(benzo[d][1,3]dioxol-5-ylmethyl)-2-(tert-butylsulfinyl)-4-(3-(pyridin-3-yl)phenyl)-2,3-dihydro-1H-pyrrolo[3,4-c]pyridine-6-carboxamide] | – | > 25 | – | > 100 | – |
| CC(C)(C)[S@@+]([O-])N1Cc2cc(C(=O)NCc3ccccc3F)nc(-c3cccc(-c4cccnc4)c3)c2C1 [2015-foleyc-213, (R)-2-(tert-butylsulfinyl)-N-(2-fluorobenzyl)-4-(3-(pyridin-3-yl)phenyl)-2,3-dihydro-1H-pyrrolo[3,4-c]pyridine-6-carboxamide] | – | > 25 | – | > 100 | – |
| CC(C)(C)[S@@+]([O-])N1Cc2cc(C(=O)NCc3ccccc3F)nc(-c3ccccc3)c2[C@H]1CCO [2015-foleyc-218, (R)-2-((R)-tert-butylsulfinyl)-N-(2-fluorobenzyl)-3-(2-hydroxyethyl)-4-phenyl-2,3-dihydro-1H-pyrrolo[3,4-c]pyridine-6-carboxamide] | – | 1.45 ± 0.28 | – | > 100 | Tmax [3, 4]: 60 min; Tmax ([3]; single oral dose): 30 min; plasma concentrations quantifiable till ([3]; single intraperitoneal dose): 12 h; plasma concentrations quantifiable till ([3]; single oral dose): 12 h |
| CC(C)(C)[S@@+]([O-])N1Cc2cc(C(=O)NCc3ccc4c(c3)OCO4)nc(-c3cccc(-c4cc5ccccc5o4)c3)c2[C@H]1CCO [2015-foleyc-219, (R)-N-(benzo[d][1,3]dioxol-5-ylmethyl)-4-(3-(benzofuran-2-yl)phenyl)-2-((R)-tert-butylsulfinyl)-3-(2-hydroxyethyl)-2,3-dihydro-1H-pyrrolo[3,4-c]pyridine-6-carboxamide] | – | 1.39 ± 0.13 | – | > 100 | – |

Second part, led by results:

| IC50 [1] [µM] | EC50 (P. falciparum Dd2) [µM] | SMILES | Cytotoxicity (Cytotoxicity (Table 1)) [µM] | EC50 [2] [µM] | other results |
| --- | --- | --- | --- | --- | --- |
| > 10 | – | CCOC(=O)c1cc2c(c(-c3cccc(Br)c3)n1)[C@@H](CCO)N([S@+]([O-])C(C)(C)C)C2 [Compound 51, Ethyl (R)-4-(3-bromophenyl)-2-((R)-tert-butylsulfinyl)-3-(2-hydroxyethyl)-2,3-dihydro-1H-pyrrolo[3,4-c]pyridine-6-carboxylate] | >10 | – | – |
| 0.495 | – | CN(C)CC#Cc1cccc(-c2nc(C(=O)NCc3ccc4c(c3)OCO4)cc3c2CN([S@+]([O-])C(C)(C)C)C3)c1 [Compound 57, (R)-N-(Benzo[d][1,3]dioxol-5-ylmethyl)-2-(tert-butylsulfinyl)-4-(3-(3-(dimethylamino)prop-1-yn-1-yl)phenyl)-2,3-dihydro-1H-pyrrolo[3,4-c]pyridine-6-carboxamide] | >10 | – | – |
| 2.85 | – | CC(C)(C)[S@@+]([O-])N1Cc2cc(C(=O)N[C@@H]3CCN(Cc4ccccc4)C3)nc(-c3cccc(Br)c3)c2[C@H]1CCO [Compound 86, (R)-N-((R)-1-Benzylpyrrolidin-3-yl)-4-(3-bromophenyl)-2-((R)-tert-butylsulfinyl)-3-(2-hydroxyethyl)-2,3-dihydro-1H-pyrrolo[3,4-c]pyridine-6-carboxamide] | >10 | – | – |
| > 10 | – | CC(C)(C)[S@@+]([O-])N1Cc2cc(C(=O)NCc3ccc4c(c3)OCO4)nc(-c3cccc(Br)c3)c2[C@H]1CCO [Compound 77, (R)-N-(Benzo[d][1,3]dioxol-5-ylmethyl)-4-(3-bromophenyl)-2-((R)-tert-butylsulfinyl)-3-(2-hydroxyethyl)-2,3-dihydro-1H-pyrrolo[3,4-c]pyridine-6-carboxamide] | >10 | – | – |
| 0.028 | – | CN(C)CC#Cc1cccc(-c2nc(C(=O)N[C@H]3CCN(Cc4ccccc4)C3)cc3c2[C@@H](CCO)N([S@+]([O-])C(C)(C)C)C3)c1 [Compound 89, (R)-N-((S)-1-benzylpyrrolidin-3-yl)-2-((R)-tert-butylsulfinyl)-4-(3-(3-(dimethylamino)prop-1-yn-1-yl)phenyl)-3-(2-hydroxyethyl)-2,3-dihydro-1H-pyrrolo[3,4-c]pyridine-6-carboxamide] | >10 | – | – |
| 0.0437 | – | CN(C)CC#Cc1cccc(-c2nc(C(=O)NCc3ccc4c(c3)OCO4)cc3c2[C@@H](CCO)N([S@@+]([O-])C(C)(C)C)C3)c1 [Compound 85, (R)-N-(Benzo[d][1,3]dioxol-5-ylmethyl)-2-((S)-tert-butylsulfinyl)-4-(3-(3-(dimethyl-amino)prop-1-yn-1-yl)phenyl)-3-(2-hydroxyethyl)-2,3-dihydro-1H-pyrrolo[3,4-c]pyridine-6-carboxamide] | >10 | – | – |
| 8.5 | – | CCOC(=O)c1cc2c(c(-c3cccc(C#CCN(C)C)c3)n1)[C@@H](CCO)N([S@+]([O-])C(C)(C)C)C2 [Compound 90, Ethyl (R)-2-((R)-tert-butylsulfinyl)-4-(3-(3-(dimethylamino)prop-1-yn-1-yl)phenyl)-3-(2-hydroxyethyl)-2,3-dihydro-1H-pyrrolo[3,4-c]pyridine-6-carboxylate] | >10 | – | – |
| – | 10.2 ± 0.94 | CC(C)NC(=O)N1Cc2cc(C(=O)NCc3ccccc3F)nc(-c3cccc(-c4cc5ccccc5o4)c3)c2[C@H]1CCO [2015-foleyc-268, (R)-4-(3-(benzofuran-2-yl)phenyl)-N^6-(2-fluorobenzyl)-3-(2-hydroxyethyl)-N^2-isopropyl-1,3-dihydro-2H-pyrrolo[3,4-c]pyridine-2,6-dicarboxamide] | – | > 100 | – |
